The text below walks through data of patent US20030045508A1, “(1r,cis)-4-(4-amino-7h-pyrrolo'2,3-i(d) pyrimidine-7-yl)-2-cyclopentene-1-methanol derivatives as antiviral” (priority 2002, published 2003).

The nature of data set [1]: Acid stability (acid-mediated hydrolytic decomposition, simulated stomach conditions). The format is physicochemical. The following applies: 0.1 N hydrochloric acid at 25° C. As to the method:
The compound of Example 3 was tested for stability towards acid-mediated hydrolytic decomposition employing a test designed to simulate stomach conditions. The compound was incubated at an initial concentration of 0.27 mg/mL in dilute hydrochloric acid at pH 1 for 72 hours at 37° C. HPLC was run immediately for t=0 and at intervals up to approximately 72 hours.
In contrast, the phosphoramidate of 2′,3′-dideoxy-adenosine (Compound 1093, PCT/GB9600580) had entirely decomposed by t=13 hours and 2′,3′-didehydro-2′,3′-dideoxy-adenosine (Compound 1001, PCT/GB96/00580) had entirely decomposed at t=0 in 0.1 N hydrochloric acid at 25° C.

With `Nc1ncnc2c1ncn2[C@H]1C=C[C@@H](CO)O1` [Compound 1001, 2′,3′-didehydro-2′,3′-dideoxy-adenosine], the “time t at which entirely decomposed” value in data set [1] was 0 h. By melting point is commonly meant the temperature, or range, at which the solid turns liquid. Compound `Nc1ncnc2c1ccn2[C@@H]1C=C[C@H](CO)C1` [Example 1, (+)-(1R, cis)-4-[4-Amino-7H-pyrrolo(2,3-d)pyrimidin-7-yl]-2-cyclopentene-1-methanol] yielded a melting point of 165 to 168 °C.
